Test results from patent US20060189693A1, “Methods of treatment with lxr agonists” (priority 2003, published 2006).

What was measured:
LXRβ protein = biological target: T1, LXRβ protein (Homo sapiens, UniProt P55055); conditions: 1 μM; over a background reading of 10000 fluorescence units; cited from earlier work
T1 sequence (P55055 1-460): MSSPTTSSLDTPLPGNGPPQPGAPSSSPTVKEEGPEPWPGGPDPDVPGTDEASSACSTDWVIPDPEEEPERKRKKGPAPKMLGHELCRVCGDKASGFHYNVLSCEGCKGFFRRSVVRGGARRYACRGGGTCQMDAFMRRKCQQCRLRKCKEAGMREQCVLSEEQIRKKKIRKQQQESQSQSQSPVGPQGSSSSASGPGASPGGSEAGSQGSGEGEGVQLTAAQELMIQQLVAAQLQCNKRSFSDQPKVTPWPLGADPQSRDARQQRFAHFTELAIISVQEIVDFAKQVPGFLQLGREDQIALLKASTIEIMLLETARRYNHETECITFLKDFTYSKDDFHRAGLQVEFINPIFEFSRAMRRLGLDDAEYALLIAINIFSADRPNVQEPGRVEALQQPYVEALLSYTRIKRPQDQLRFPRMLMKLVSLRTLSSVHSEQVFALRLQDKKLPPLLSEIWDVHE

[1] = system: LV mass (cardiac hypertrophy) of aorta-constricted CD-1 mice; test: Effect on LV mass in aorta-constricted mice, dose range (Example 4); type: in vivo; parameters: unit not given here
Procedure: Male CD-1 mice (n=7 per group), 20-25 g in weight, were used for the experiment. Each mouse was anaesthetized with isoflurane 1-2%. Each mouse's aorta was exposed between the two renal arteries and was surgically constricted using a 30-gauge needle and 6.0 suture to induce heart growth. Seven days after surgery, baseline echocardiography was performed on each mouse to establish left ventricular mass (“LV mass”). Enalapril was orally administered to the mice at the dose of 10 mg/kg beginning on day 11 (4 days after baseline) and was continued once daily for 10 days. Formula IIa, suspended in 0.5% MC (vehicle), was orally administered to the mice at the doses of 3.0 mg/kg, 10 mg/kg, or 30 mg/kg once a day beginning on day 11. Formula Ia, suspended in 0.5% MC (vehicle), was orally administered to the mice at the dose of 50 mg/kg once a day beginning on day 11. The control group was administered with vehicle (0.5% MC). Repeat echocardiography was conducted on each mouse 14 and 21 days after surgery.

[2] = system: LV mass (cardiac hypertrophy) of aorta-constricted CD-1 mice; test: Effect on LV mass in aorta-constricted mice (Example 3); type: in vivo
Procedure: Male CD-1 mice (n=7 per group), 20-25 g in weight, were used for the experiment. Each mouse was anaesthetized with isoflurane 1-2%. Each mouse's aorta was exposed between the two renal arteries and was surgically constricted using a 30-gauge needle and 6.0 suture to induce heart growth. Seven days after surgery, baseline echocardiography was performed on each mouse to establish left ventricular mass (“LV mass”). Enalapril, the gold standard in treating cardiac hypertrophy, was orally administered to the mice at the dose of 10 mg/kg beginning on day 11 (4 days after baseline) and was continued once daily for 10 days. The compound of Formula IIa was suspended in 0.5% methylcellulose (MC) solution (vehicle) and was orally administered to the mice at the doses of 10 mg/kg twice a day, beginning on day 11. The control group was administered with vehicle (0.5% MC) beginning on day 11. Repeat echocardiography was conducted on each mouse 14 and 21 days after surgery.

## C[C@H](CC[C@@H]1OC1(C)C)[C@H]1CC[C@H]2[C@@H]3CC=C4C[C@@H](O)CC[C@]4(C)[C@H]3CC[C@]12C [24(S), 25-epoxycholesterol]
LXRβ protein
  reading (fluorescence): 20000 fluorescence units

## CCOC(=O)[C@H](CCc1ccccc1)N[C@@H](C)C(=O)N1CCC[C@H]1C(=O)O [Enalapril, reference compound]
[1]; Enalapril 10 mg/kg once daily oral from day 11, 14 days after surgery
  Mean ± SE LV Mass: 95.1 ± 3.90
[1]; Enalapril 10 mg/kg once daily oral from day 11, 21 days after surgery
  Mean ± SE LV Mass: 91.4 ± 2.48
[1]; Enalapril group 10 mg/kg once daily oral, 7 days after surgery (baseline, before dosing)
  Mean ± SE LV Mass: 101.02 ± 2.79
[2]; 10 mg/kg once daily oral from day 11, 14 days after surgery
  Mean ± SE LV Mass: 84.90 ± 1.11
[2]; 10 mg/kg once daily oral, days 14 and 21, p<0.05
  LV Mass compared to vehicle: significantly (p<0.05) reduced LV Mass
[2]; 10 mg/kg once daily oral, p<0.05
  LV Mass compared to baseline hypertrophy (reversal of pathology): significantly (p<0.05) reversed the pathology
[2]; Enalapril group 10 mg/kg once daily oral, 7 days after surgery (baseline, before dosing from day 11)
  Mean ± SE LV Mass: 94.09 ± 1.950

## O=C(O)Cc1cccc(OCCCN(Cc2cccc(C(F)(F)F)c2Cl)CC(c2ccccc2)c2ccccc2)c1 [Formula IIa, 2-(3-{3-[[2-Chloro-3-(Trifluoromethyl)Benzyl](2,2-Diphenylethyl)Amino]Propoxy}-Phenyl)Acetic Acid]
[1]; 3 mg/kg once a day oral from day 11, 14 days after surgery
  Mean ± SE LV Mass: 106.75 ± 2.43
[1]; 3 mg/kg once a day oral from day 11, 21 days after surgery
  Mean ± SE LV Mass: 106.54 ± 2.56
[1]; 3 mg/kg once a day oral group, 7 days after surgery (baseline, before dosing)
  Mean ± SE LV Mass: 98.9 ± 4.59
[1]; 10 mg/kg once a day oral from day 11, 14 days after surgery
  Mean ± SE LV Mass: 96.31 ± 2.70
[1]; 10 mg/kg once a day oral from day 11, 21 days after surgery
  Mean ± SE LV Mass: 95.5 ± 2.97
[1]; 10 mg/kg once a day oral group, 7 days after surgery (baseline, before dosing)
  Mean ± SE LV Mass: 98.01 ± 2.39
[1]; 30 mg/kg once a day oral from day 11, 14 days after surgery
  Mean ± SE LV Mass: 101.77 ± 2.25
[1]; 30 mg/kg once a day oral from day 11, 21 days after surgery
  Mean ± SE LV Mass: 101.99 ± 4.00
[1]; 30 mg/kg once a day oral group, 7 days after surgery (baseline, before dosing)
  Mean ± SE LV Mass: 102.42 ± 2.27
[2]; 10 mg/kg BID oral from day 11, 14 days after surgery
  Mean ± SE LV Mass: 99.45 ± 1.98
[2]; 10 mg/kg BID oral from day 11, 21 days after surgery
  Mean ± SE LV Mass: 100.66 ± 2.43
[2]; 10 mg/kg b.i.d. oral
  further increase in LV Mass: prevented any further increase in LV Mass
[2]; 10 mg/kg b.i.d. oral, 14 and 21 days after surgery, p<0.05
  LV Mass compared to vehicle: statistically significant reduction
[2]; Formula IIa group 10 mg/kg BID oral, 7 days after surgery (baseline, before dosing from day 11)
  Mean ± SE LV Mass: 100.88 ± 2.77

## O=S(=O)(c1ccccc1)N(CC(F)(F)F)c1ccc(C(O)(C(F)(F)F)C(F)(F)F)cc1 [Formula Ia, N-(2,2,2-Trifluoroethyl)-N-[4-(2,2,2-Trifluoro-1-Hydroxy-1-Trifluoromethyl-Ethyl)-Phenyl]-Benzenesulfonamide]
[1]; 50 mg/kg once a day oral from day 11, 14 days after surgery
  Mean ± SE LV Mass: 106.56 ± 3.86
[1]; 50 mg/kg once a day oral group, 7 days after surgery (baseline, before dosing)
  Mean ± SE LV Mass: 101.85 ± 4.75
